Measured values taken from US5134151A, “2-picolylamine derivatives” (J. Uriach & Cia, priority 1989, dated 1992).

Key:
[1] = system: platelet aggregation induced by PAF; assay: Inhibition of Platelet Aggregation Induced by PAF (Born nephelometric technique, rabbit platelet rich plasma); type: cell-based, male New Zealand albino rabbits; details: PAF (C18) 16 nM final
Procedure: The blood is obtained by cardiac puncture of male New Zealand albino rabbits (between 2 and 2.5 Kg of weight) and coagulation is prevented by adding 1 part of 3.16% sodium citrate dihydrate in 9 parts of blood. The platelet rich plasma (PRP) is prepared by blood centrifugation at 250×g for 10 min. at 4° C. and it is diluted with platelet poor plasma (PPP) by additional centrifugation at 3000×g for 10 min. The amount of platelets is adjusted to 3×10^-5 /mm^3. the platelet aggregation induced by PAF (C18; prepared in our laboratory) (16 nM, final) is determined by the Born nephelometric technique (J. Physiol., 1962, 162, 67) using a aggregometer Chrono-log 500. The activities of the inhibitors are expressed as IC50, that is to say the concentration of the drug needed to inhibit the platelet aggregation by 50%.

[2] = system: hypotension induced by PAF; assay: Inhibition of the Hypotensive Effect Induced by PAF in Normotense Rats; type: in vivo, Male Sprage Dawley rats; details: Rattus norvegicus, iv, anesthetized, compound i.v. 3 min before PAF 0.5 mcg/Kg i.v., average arterial pressure, read-out: CI50 (inhibition of PAF-induced hypotension)
Procedure: Male Sprage Dawley rats, of 180-220 g of weight, anesthetized with sodium pentobarbital (50 mg/Kg, i.p. 1 mL/100 g) have been used. In order to measure the average arterial pressure, a polyethylene catheter is introduced into the carotid artery. The arterial pressure is recorded with the help of a transducer connected with a R611 Beckman polygraph. The tested compounds are administered through the femoral vein 3 min before the injection of PAF (0.5 mcg/Kg, i.v.).

[3] = Oryctolagus cuniculus, Platelet

SMILES: CCCCCCCCCCCCCCCCCNC(=O)OCCOCCOC(=O)N(Cc1cccc[n+]1CC)C(=O)OCC.[I-] [Compound 16, 2-(N-Ethoxycarbonyl-N-((2-(2-(heptadecylcarbamoyloxy)ethoxy)ethoxy)carbonyl)aminomethyl)-1-ethylpyridinium iodide]
- IC50 [1, 3]: 12 nM
- ED50 [2]: 0.021 mg/kg

SMILES: CCCCCCCCCCCCCCCNC(=O)OCCOCCOCCOC(=O)N(Cc1cccc[n+]1CC)C(C)=O.[I-] [Compound 46, 2-(N-Acetyl-N-((2-(2-(2-(pentadecylcarbamoyloxy)ethoxy)ethoxy)ethoxy)carbonyl)aminomethyl)-1-ethylpyridinium iodide]
- IC50 [1, 3]: 12 nM
- ED50 [2]: 0.028 mg/kg

SMILES: CCCCCCCCCCCCCCCCOCCSCCOC(=O)N(Cc1cccc[n+]1CC)C(C)=O.[I-] [Compound 66, 2-(N-Acetyl-N-((2-(2-hexadecyloxyethylthio)ethoxy)carbonyl)aminomethyl)-1-ethylpyridinium iodide]
- IC50 [1, 3]: 4.4 nM
- ED50 [2]: 0.014 mg/kg

SMILES: CCCCCCCCCCCCCCCCCCOCCOCCOC(=O)N(Cc1cccc[n+]1CC)C(C)=O.[I-] [Compound 3, 2-(N-Acetyl-N-((2-(2-octadecyloxyethoxy)ethoxy)carbonyl)aminomethyl)-1-ethylpyridinium iodide]
- IC50 [1, 3]: 19 nM
- ED50 [2]: 0.022 mg/kg

SMILES: CCCCCCCCCCCCCCCCCNC(=O)OCCSCCOC(=O)N(Cc1cccc[n+]1CC)C(C)=O.[I-] [Compound 62, 2-(N-Acetyl-N-((2-(2-(heptadecylcarbamoyloxy)ethylthio)ethoxy)carbonyl)aminomethyl)-1-ethylpyridinium iodide]
- IC50 [1]: 4.4 nM
- ED50 [2]: 0.013 mg/kg

SMILES: CCCCCCCCCCCCCCCNC(=O)OCCOCCOC(=O)N(Cc1cccc[n+]1CC)C(=O)OCC.[I-] [Compound 22, 2-(N-Ethoxycarbonyl-N-((2-(2-(pentadecylcarbamoyloxy)ethoxy)ethoxy)carbonyl)aminomethyl)-1-ethylpyridinium iodide]
- IC50 [1, 3]: 27 nM
- ED50 [2]: 0.032 mg/kg

SMILES: CCCCCCCCCCCCCCCNC(=O)OCCOCCOC(=O)N(Cc1cccc[n+]1CCC)C(C)=O.[I-] [Compound 20, 2-(N-Acetyl-N-((2-(2-(pentadecylcarbamoyloxy)ethoxy)ethoxy)carbonyl)aminomethyl)-1-propylpyridinium iodide]
- IC50 [1, 3]: 220 nM
- ED50 [2]: 0.68 mg/kg

SMILES: CCCCCCCCCCCCCCCNC(=O)OCCOCCOC(=O)N(Cc1cccc[n+]1CC)C(=O)OCC(C)C.[Cl-] [Compound 25, 2-(N-Isobutyloxycarbonyl-N-((2-(2-(pentadecylcarbamoyloxy)ethoxy)ethoxy)carbonyl)aminomethyl)-1-ethylpyridinium chloride]
- IC50 [1, 3]: 51 nM
- ED50 [2]: 0.064 mg/kg

SMILES: CCCCCCCCCCCCCCCCCNC(=O)OCCOCCOC(=O)N(Cc1cccc[n+]1C)C(C)=O.[I-] [Compound 14, 2-(N-Acetyl-N-((2-(2-(heptadecylcarbamoyloxy)ethoxy)ethoxy)carbonyl)aminomethyl)-1-methylpyridinium iodide]
- IC50 [1, 3]: 54 nM
- ED50 [2]: 0.13 mg/kg

SMILES: CCCCCCCCCCCCCCCCCCOCCSCCOC(=O)N(Cc1cccc[n+]1CC)C(C)=O [Compound 69, 2-(N-Acetyl-N-((2-(2-octadecyloxyethylthio)ethoxy)carbonyl)aminomethyl)-1-ethylpyridinium idodide]
- IC50 [1, 3]: 15 nM
- ED50 [2]: 0.016 mg/kg

SMILES: CC[n+]1ccccc1CN(C(C)=O)C(=O)OCCOCCOC(=O)NCC1CCCCC1.[I-] [Compound 43, 2-(N-Acetyl-N-((2-(2-(cyclohexylmethylcarbamoyloxy)ethoxy)ethoxy)carbonyl)aminomethyl)-1-ethylpyridinium iodide]
- IC50 [1, 3]: 2000 nM
- ED50 [2]: 0.5 mg/kg

SMILES: CCCCCCCCCCCCCCCNC(=O)OCCOCCOC(=O)N(Cc1cccc[n+]1CC)C(C)=O.[I-] [Compound 19, 2-(N-Acetyl-N-((2-(2-(pentadecylcarbamoyloxy)ethoxy)ethoxy)carbonyl)aminomethyl)-1-ethylpyridinium iodide]
- IC50 [1, 3]: 19 nM
- ED50 [2]: 0.041 mg/kg

SMILES: CC[n+]1ccccc1CN(C(C)=O)C(=O)OCCOCCOC(=O)NCCCc1ccccc1.[I-] [Compound 40, 2-(N-Acetyl-N-((2-(2-(3-phenylpropylcarbamoyloxy)ethoxy)ethoxy)carbonyl)aminomethyl)-1-ethylpyridinium iodide]
- IC50 [1, 3]: 1200 nM
- ED50 [2]: 0.88 mg/kg

SMILES: CCCCCCCCCCCCCCCCCNC(=O)OCCOCCOC(=O)NCc1cccc[n+]1CC.[I-] [Compound 13, 2-(N-((2-(2-(Heptadecylcarbamoyloxy)ethoxy)ethoxy)carbonyl)aminomethyl)-1-ethylpyridinium iodide]
- IC50 [1, 3]: 1600 nM
- ED50 [2]: 0.5 mg/kg

SMILES: CCCCCCCCCCCCCCCCCNC(=O)OCCOCCOC(=O)N(Cc1cccc[n+]1CC)C(C)=O [Compound 12, 2-(N-Acetyl-N-((2-(2-heptadecylcarbamoyloxy)ethoxy)ethoxy)carbonyl)aminomethyl)-1-ethylpyridium chloride]
- IC50 [1, 3]: 27 nM
- ED50 [2]: 0.067 mg/kg

SMILES: CCCCCCCCCCCCCCCCCNC(=O)OCCSCCOC(=O)N(Cc1cccc[n+]1CC)C(C)=O.[Cl-] [Compound 63, 2-(N-Acetyl-N-((2-(2-(heptadecylcarbamoyloxy)ethylthio)ethoxy)carbonyl)aminomethyl)-1-ethylpyridinium chloride]
- IC50 [1]: 12 nM
- ED50 [2]: 0.018 mg/kg

SMILES: CC[n+]1ccccc1CN(C(C)=O)C(=O)OCCOCCOC(=O)C(C)(C)C.[I-] [Compound 9, 2-(N-Acetyl-N-((2-(2-pivaloyloxyethoxy)ethoxy)carbonyl)aminomethyl)-1-ethylpyridinium iodide]
- IC50 [1, 3]: 1500 nM
- ED50 [2]: 5 mg/kg

SMILES: CCCCCCCCCCCCCCCNC(=O)OCCCCCOC(=O)N(Cc1cccc[n+]1CC)C(C)=O.[I-] [Compound 31, 2-(N-Acetyl-N-((5-(pentadecylcarbamoyloxy)pentoxy)carbonyl)aminomethyl)-1-ethylpyridinium iodide]
- IC50 [1, 3]: 32 nM
- ED50 [2]: 0.057 mg/kg

SMILES: CCCCCCCCCCCCCCCNC(=O)OCCSCCOC(=O)N(Cc1cccc[n+]1CC)C(C)=O.[I-] [Compound 37, 2-(N-Acetyl-N-((2-(2-(pentadecylcarbamoyloxy)ethylthio)ethoxy)carbonyl)aminomethyl)-1-ethylpyridinium iodide]
- IC50 [1, 3]: 6.8 nM
- ED50 [2]: 0.044 mg/kg
